Consider 29 molecules from patent US10501449B2 (priority 2018, dated 2019).

Sequence of hROMK (human Kir1.1) (P48048 whole entry): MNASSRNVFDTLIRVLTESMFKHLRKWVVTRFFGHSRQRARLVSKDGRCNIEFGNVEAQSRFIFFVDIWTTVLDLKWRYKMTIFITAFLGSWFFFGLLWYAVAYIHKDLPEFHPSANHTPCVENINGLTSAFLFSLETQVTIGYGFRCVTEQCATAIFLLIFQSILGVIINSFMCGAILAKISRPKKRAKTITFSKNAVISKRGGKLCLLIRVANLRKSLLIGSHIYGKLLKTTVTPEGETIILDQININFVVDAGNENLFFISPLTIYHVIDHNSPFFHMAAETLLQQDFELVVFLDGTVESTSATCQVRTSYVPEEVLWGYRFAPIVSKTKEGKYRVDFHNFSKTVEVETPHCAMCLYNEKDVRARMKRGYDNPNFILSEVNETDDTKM

The test concerns the target hROMK (human Kir1.1) (Homo sapiens (Human), UniProt P48048). Kind of test: cell-based. Conditions: CHO T-Rex hROMK stable cell line; thallium flux; 10-point concentration response curve; read-out: Human ROMK Th Flux IC50.
As to `Cc1cc(-n2cc(C(O)CN3CCO[C@H](c4ccc5c(c4C)COC5=O)C3)cn2)ncc1C#N` (single isomer, unassigned) [Example 18-I], the IC50 came to 870 nM.
The figure for `Cc1cc(N2CC(CN3CCN[C@H](c4ccc5c(c4C)COC5=O)C3)OC2=O)ncc1C#N` (single isomer, unassigned) [Example 160-I] is 130 nM; for `COc1cc(-n2cc(CN3CC(c4ccc5c(c4C)COC5=O)NC(C(C)O)C3)cn2)ncc1C#N` (single isomer, unassigned) [Example 204-I, 6-(4-((3-(1-hydroxyethyl)-5-(4-methyl-1-oxo-1,3-dihydroisobenzofuran-5-yl)piperazin-1-yl)methyl)-1H-pyrazol-1-yl)-4-methoxynicotinonitrile] it is 220 nM; for `Cc1cc(-n2cc(CN3CC(F)C(c4ccc5c(c4C)COC5=O)C3)cn2)ncc1C#N` (single isomer, unassigned) [Example 212-II, 6-(4-((3-fluoro-4-(4-methyl-1-oxo-1,3-dihydroisobenzofuran-5-yl)pyrrolidin-1-yl)methyl)-1H-pyrazol-1-yl)-4-methylnicotinonitrile] it is 97 nM.
As for `Cc1cc(-n2cc(CN3CC(c4ccc5c(c4C)COC5=O)NC(C(C)(C)O)C3)cn2)ncc1C#N` (single isomer, unassigned) [Example 213-I, 6-(4-((3-(2-hydroxypropan-2-yl)-5-(4-methyl-1-oxo-1,3-dihydroisobenzofuran-5-yl)piperazin-1-yl)methyl)-1H-pyrazol-1-yl)-4-methynicotinonitrile], the IC50 is 1200 nM.
The figure for `CC(=O)NC1CCN(Cc2cnn(-c3cc(C)c(C#N)cn3)c2)CC1c1ccc2c(c1C)COC2=O` (single isomer, unassigned) [Example 248-I, N-(1-((1-(5-cyano-4-methylpyridin-2-yl)-1H-pyrazol-4-yl)methyl)-3-(4-methyl-1-oxo-1,3-dihydroisobenzofuran-5-yl)piperidin-4-yl)acetamide] is 1500 nM; for `CC(=O)NC1CC(c2ccc3c(c2C)COC3=O)CN(Cc2cnn(-c3cc(C)c(C#N)cn3)c2)C1` (single isomer, unassigned) [Example 257-I, N-(1-((1-(5-cyano-4-mehtylpyridin-2-yl)-1H-pyrazol-4-yl)methyl)-5-(4-methyl-1-oxo-1,3-dihydroisobenzofuran-5-yl)piperidin-3-yl)acetamide] it is 1400 nM; for `CNC(=O)OC1CCN(Cc2cnn(-c3cc(C)c(C#N)cn3)c2)CC1c1ccc2c(c1C)COC2=O` (single isomer, unassigned) [Example 258-I, 1-((1-(5-cyano-4-methylpyridin-2-yl)-1H-pyrazol-4-yl)methyl)-3-(4-methyl-1-oxo-1,3-dihydroisobenzofuran-5-yl)piperidin-4-yl methylcarbamate] it is 250 nM.
The result for `Cc1cc(-c2nnc(CN3CC(c4ccc5c(c4C)COC5=O)NC(C(F)F)C3)o2)ncc1C#N` (single isomer, unassigned) [Example 273-I, 6-(5-((3-(difluoromethyl)-5-(4-methyl-1-oxo-1,3-dihydroisobenzofuran-5-yl)piperazin-1-yl)methyl)-1,3,4-oxadiazol-2-yl)-4-methylnicotinonitrile] reads 720 nM; that for `Cc1cc(-n2cc(CN3CCO[C@@H](c4ccc5c(c4C)COC5=O)C3)cn2)ncc1C#N` [Example 1-II, (S)-4-methyl-6-(4-((2-(4-methyl-1-oxo-1,3-dihydroisobenzofuran-5-yl)morpholino)methyl)-1H-pyrazol-1-yl) nicotinonitrile], 800 nM.
The result for `Cc1c(C2CN(Cc3cnn(-c4ccc5oc(=O)n(C)c5c4)c3)CCC2(F)F)ccc2c1COC2=O` (centres unmarked) [Example 4, 5-(4-((4,4-difluoro-3-(4-methyl-1-oxo-1,3-dihydroisobenzofuran-5-yl)piperidin-1-yl)methyl)-1H-pyrazol-1-yl)-3-methylbenzo[d]oxazol-2(3H)-one] reads 640 nM.
For `Cc1cc(-n2cc(CN3CCC(F)(F)C(c4ccc5c(c4C)COC5=O)C3)cn2)ncc1C#N` (centres unmarked) [Example 5, 6-(4-((4,4-difluoro-3-(4-methyl-1-oxo-1,3-dihydroisobenzofuran-5-yl)piperidin-1-yl)methyl)-1H-pyrazol-1-yl)-4-methylnicotinonitrile], the IC50 stood at 270 nM.
The result for `Cc1ncc(-n2cc(CN3CCO[C@H](c4ccc5c(c4C)COC5=O)C3)cn2)s1` [Example 7-I, (R)-4-methyl-5-(4-((1-(2-methylthiazol-5-yl)-1H-pyrazol-4-yl)methyl)morpholin-2-yl) isobenzofuran-1(3H)-one] reads 1000 nM.
The result for `Cc1c([C@@H]2CN(Cc3cnn(-c4cc(C5CC5)c(C#N)cn4)c3)CCO2)ccc2c1COC2=O` [Example 8-I, (R)-4-cyclopropyl-6-(4-((2-(4-methyl-1-oxo-1,3-dihydroisobenzofuran-5-yl)morpholino)methyl)-1H-pyrazol-1-yl)nicotinonitrile] reads 280 nM; that for `Cc1cc(-n2cc(CN3C[C@@H](c4ccc5c(c4C)COC5=O)OCC3=O)cn2)ncc1C#N` [Example 10-I, (R)-4-methyl-6-(4-((2-(4-methyl-1-oxo-1,3-dihydroisobenzofuran-5-yl)-5-oxomorpholino)methyl)-1H-pyrazol-1-yl)nicotinonitrile], 620 nM.
In the case of `Cc1c([C@@H]2CN(Cc3nnc(-c4ccc(C#N)cn4)o3)CCO2)ccc2c1COC2=O` [Example 12-I, (R)-6-(5-((2-(4-methyl-1-oxo-1,3-dihydroisobenzofuran-5-yl)morpholino)methyl)-1,3,4-oxadiazol-2-yl)nicotinonitrile], the IC50 came out at 530 nM.
The figure for `Cc1cc(-c2nnc(CN3CCN[C@H](c4ccc5c(c4C)COC5=O)C3)o2)ncc1C#N` [Example 13-I, (R)-4-methyl-6-(5-((3-(4-methyl-1-oxo-1,3-dihydroisobenzofuran-5-yl)piperazin-1-yl)methyl)-1,3,4-oxadiazol-2-yl)nicotinonitrile] is 110 nM.
The result for `COc1cc(-c2ccc(CN3C[C@@H](c4ccc5c(c4C)COC5=O)OC3=O)cn2)ncc1C#N` [Example 17-I, (R)-4-methoxy-5′-((5-(4-methyl-1-oxo-1,3-dihydroisobenzofuran-5-yl)-2-oxooxazolidin-3-yl)methyl)-[2,2′-bipyridine]-5-carbonitrile] reads 900 nM.
With `Cc1c([C@@H]2CN(Cc3cnc(-c4ccc5oc(=O)n(C)c5c4)s3)CCO2)ccc2c1COC2=O` [Example 19-I, (R)-3-methyl-5-(5-((2-(4-methyl-1-oxo-1,3-dihydroisobenzofuran-5-yl)morpholino)methyl)thiazol-2-yl)benzo[d]oxazol-2(3H)-one], the concentration for half-maximal inhibition (IC50) was determined as 180 nM.
The result for `Cc1c([C@@H]2CN(C(=O)c3cnc(-c4ccc5oc(=O)n(C)c5c4)s3)CCO2)ccc2c1COC2=O` [Example 20-I, (R)-3-methyl-5-(5-(2-(4-methyl-1-oxo-1,3-dihydroisobenzofuran-5-yl)morpholine-4-carbonyl)thiazol-2-yl)benzo[d]oxazol-2(3H)-one] reads 490 nM.
Turning to `COC(=O)N1CCN(Cc2cnn(-c3cc(C)c(C#N)cn3)c2)C[C@H]1c1ccc2c(c1C)COC2=O` [Example 24-I, Methyl (R)-4-((1-(5-cyano-4-methylpyridin-2-yl)-1H-pyrazol-4-yl)methyl)-2-(4-methyl-1-oxo-1,3-dihydroisobenzofuran-5-yl)piperazine-1-carboxylate], the IC50 was determined as 500 nM.
For `Cc1c([C@@H]2CN(Cc3cn(-c4ccc5oc(=O)n(C)c5c4)cn3)CCO2)ccc2c1COC2=O` [Example 29-I, (R)-3-methyl-5-(4-((2-(4-methyl-1-oxo-1,3-dihydroisobenzofuran-5-yl)morpholino)methyl)-1H-imidazol-1-yl) benzo[d]oxazol-2(3H)-one], the IC50 worked out at 120 nM.
As to `Cc1cc(-c2nnc(CN3CCO[C@H](c4ccc5c(c4C)COC5=O)C3)o2)ncc1C#N` [Example 30-I, (R)-4-methyl-6-(5-((2-(4-methyl-1-oxo-1,3-dihydroisobenzofuran-5-yl)morpholino)methyl)-1,3,4-oxadiazol-2-yl) nicotinonitrile], the IC50 is 260 nM.
Consider `Cc1cc(-n2cc(CCN3CCO[C@H](c4ccc5c(c4C)COC5=O)C3)cn2)ncc1C#N` [Example 31-I, (R)-4-methyl-6-(4-(2-(2-(4-methyl-1-oxo-1,3-dihydroisobenzofuran-5-yl)morpholino)ethyl)-1H-pyrazol-1-yl) nicotinonitrile], for which the IC50 is 190 nM.
The result for `Cc1cc(-c2ncc(C(=O)N3CCO[C@H](c4ccc5c(c4C)COC5=O)C3)s2)ncc1C#N` [Example 33-I, (R)-4-methyl-6-(5-(2-(4-methyl-1-oxo-1,3-di-hydroisobenzofuran-5-yl)morpholine-4-carbonyl)thiazol-2-yl) nicotinonitrile] reads 690 nM; that for `COc1cc(-c2ncc(C(=O)N3CCO[C@H](c4ccc5c(c4C)COC5=O)C3)s2)ncc1C#N` [Example 34-I, (R)-4-methoxy-6-(5-(2-(4-methyl-1-oxo-1,3-dihydroisobenzofuran-5-yl)morpholine-4-carbonyl)thiazol-2-yl) nicotinonitrile], 190 nM; that for `Cc1cn(-c2ncc(CN3CCO[C@H](c4ccc5c(c4C)COC5=O)C3)s2)cn1` [Example 36-I, (R)-4-methyl-5-(4-((2-(4-methyl-1H-imidazol-1-yl)thiazol-5-yl)methyl)morpholin-2-yl)iso-benzofuran-1(3H)-one], 680 nM.
The figure for `Cc1c([C@@H]2CN(Cc3cnn(-c4ccsc4)c3)CCO2)ccc2c1COC2=O` [Example 38-I, (R)-4-methyl-5-(4-((1-(thiophen-3-yl)-1H-pyrazol-4-yl)methyl)morpholin-2-yl)isobenzo-furan-1(3H)-one] is 3400 nM; for `Cc1c([C@@H]2CN(Cc3cnn(-c4cnccn4)c3)CCO2)ccc2c1COC2=O` [Example 39-I, (R)-4-methyl-5-(4-((1-(pyrazin-2-yl)-1H-pyrazol-4-yl)methyl)morpholin-2-yl)isobenzo-furan-1(3H)-one] it is 770 nM.
